Values after ≈ are worked out from the molar mass of the structure shown.
Assays:
Type in all cases: functional
Enterococcus faecium = assay: Antibacterial activity against Enterococcus faecium ATCC19434 assessed as inhibition of bacterial growth incubated for 18 hrs by two-fold serial dilution method
Staphylococcus aureus [1] = assay: Antibacterial activity against methicillin-resistant Staphylococcus aureus ATCC 43300 assessed as inhibition of bacterial growth incubated for 18 hrs by two-fold serial dilution method
Staphylococcus aureus [2] = assay: Antibacterial activity against methicillin-sensitive Staphylococcus aureus ATCC 29213 assessed as inhibition of bacterial growth incubated for 18 hrs by two-fold serial dilution method
[3] = test system: Staphylococcus epidermidis; assay: Antibacterial activity against Staphylococcus epidermidis ATCC12228 assessed as inhibition of bacterial growth incubated for 18 hrs by two-fold serial dilution method

Structure (SMILES): C=C[C@]1(C)C[C@@H](OC(=O)CNC(=S)NC(=O)c2ccccc2)[C@]2(C)[C@H](C)CC[C@]3(CCC(=O)[C@H]32)[C@@H](C)[C@@H]1O
- MIC (Enterococcus faecium): 32 µg/mL (≈ 59.2 µM)
- MIC (Staphylococcus aureus [1]): > 64 µg/mL
- MIC (Staphylococcus aureus [2]): > 64 µg/mL
- MIC [3]: > 64 µg/mL

Structure (SMILES): C=C[C@]1(C)C[C@@H](OC(=O)CNC(=S)NCCCCCCCCCCCCCCCCCC)[C@]2(C)[C@H](C)CC[C@]3(CCC(=O)[C@H]32)[C@@H](C)[C@@H]1O
- MIC (Enterococcus faecium): 32 µg/mL (≈ 46.4 µM)
- MIC (Staphylococcus aureus [1]): 2 µg/mL (≈ 2.9 µM)
- MIC (Staphylococcus aureus [2]): 4 µg/mL (≈ 5.8 µM)
- MIC [3]: > 64 µg/mL

Structure (SMILES): C=C[C@]1(C)C[C@@H](OC(=O)CNC(=O)Nc2ccccc2-c2ccccc2)[C@]2(C)[C@H](C)CC[C@]3(CCC(=O)[C@H]32)[C@@H](C)[C@@H]1O
- MIC (Enterococcus faecium): 32 µg/mL (≈ 55.9 µM)
- MIC (Staphylococcus aureus [1]): 4 µg/mL (≈ 6.98 µM)
- MIC (Staphylococcus aureus [2]): 4 µg/mL (≈ 6.98 µM)
- MIC [3]: > 64 µg/mL

Structure (SMILES): C=C[C@]1(C)C[C@@H](OC(=O)CNC(=O)Nc2ccccc2Cl)[C@]2(C)[C@H](C)CC[C@]3(CCC(=O)[C@H]32)[C@@H](C)[C@@H]1O
- MIC (Enterococcus faecium): 8 µg/mL (≈ 15.1 µM)
- MIC (Staphylococcus aureus [1]): 0.5 µg/mL (≈ 0.941 µM)
- MIC (Staphylococcus aureus [2]): 0.5 µg/mL (≈ 0.941 µM)
- MIC [3]: > 64 µg/mL

Structure (SMILES): C=C[C@]1(C)C[C@@H](OC(=O)CNC(=S)NC2CCCCC2)[C@]2(C)[C@H](C)CC[C@]3(CCC(=O)[C@H]32)[C@@H](C)[C@@H]1O
- MIC (Enterococcus faecium): 32 µg/mL (≈ 61.7 µM)
- MIC (Staphylococcus aureus [1]): 1 µg/mL (≈ 1.93 µM)
- MIC (Staphylococcus aureus [2]): 1 µg/mL (≈ 1.93 µM)
- MIC [3]: > 64 µg/mL

Structure (SMILES): C=C[C@]1(C)C[C@@H](OC(=O)CNC(=O)NCC)[C@]2(C)[C@H](C)CC[C@]3(CCC(=O)[C@H]32)[C@@H](C)[C@@H]1O
- MIC (Enterococcus faecium): 32 µg/mL (≈ 71.3 µM)
- MIC (Staphylococcus aureus [1]): 2 µg/mL (≈ 4.46 µM)
- MIC (Staphylococcus aureus [2]): 2 µg/mL (≈ 4.46 µM)
- MIC [3]: > 64 µg/mL

Structure (SMILES): C=C[C@]1(C)C[C@@H](OC(=O)CNC(=O)Nc2cccc(C)c2)[C@]2(C)[C@H](C)CC[C@]3(CCC(=O)[C@H]32)[C@@H](C)[C@@H]1O
- MIC (Enterococcus faecium): 16 µg/mL (≈ 31.3 µM)
- MIC (Staphylococcus aureus [1]): 0.5 µg/mL (≈ 0.979 µM)
- MIC (Staphylococcus aureus [2]): 0.125 µg/mL (≈ 0.245 µM)
- MIC [3]: > 64 µg/mL

Structure (SMILES): C=C[C@]1(C)C[C@@H](OC(=O)CNC(=S)NC(C)=O)[C@]2(C)[C@H](C)CC[C@]3(CCC(=O)[C@H]32)[C@@H](C)[C@@H]1O
- MIC (Enterococcus faecium): 16 µg/mL (≈ 33.4 µM)
- MIC (Staphylococcus aureus [1]): 2 µg/mL (≈ 4.18 µM)
- MIC (Staphylococcus aureus [2]): 2 µg/mL (≈ 4.18 µM)
- MIC [3]: > 64 µg/mL

Structure (SMILES): C=C[C@]1(C)C[C@@H](OC(=O)CNC(=S)Nc2ccc(OC)cc2)[C@]2(C)[C@H](C)CC[C@]3(CCC(=O)[C@H]32)[C@@H](C)[C@@H]1O
- MIC (Enterococcus faecium): 16 µg/mL (≈ 29.5 µM)
- MIC (Staphylococcus aureus [1]): 0.5 µg/mL (≈ 0.921 µM)
- MIC (Staphylococcus aureus [2]): 1 µg/mL (≈ 1.84 µM)
- MIC [3]: > 64 µg/mL

Structure (SMILES): C=C[C@]1(C)C[C@@H](OC(=O)CNC(=O)NCCC)[C@]2(C)[C@H](C)CC[C@]3(CCC(=O)[C@H]32)[C@@H](C)[C@@H]1O
- MIC (Enterococcus faecium): 32 µg/mL (≈ 69.2 µM)
- MIC (Staphylococcus aureus [1]): 2 µg/mL (≈ 4.32 µM)
- MIC (Staphylococcus aureus [2]): 2 µg/mL (≈ 4.32 µM)
- MIC [3]: > 64 µg/mL

Structure (SMILES): C=C[C@]1(C)C[C@@H](OC(=O)CNC(=S)NC(=O)c2ccc(Br)cc2)[C@]2(C)[C@H](C)CC[C@]3(CCC(=O)[C@H]32)[C@@H](C)[C@@H]1O
- MIC (Enterococcus faecium): 16 µg/mL (≈ 25.8 µM)
- MIC (Staphylococcus aureus [1]): 16 µg/mL (≈ 25.8 µM)
- MIC (Staphylococcus aureus [2]): 16 µg/mL (≈ 25.8 µM)
- MIC [3]: > 64 µg/mL

Structure (SMILES): C=C[C@]1(C)C[C@@H](OC(=O)CNC(=O)NC2CCCCC2)[C@]2(C)[C@H](C)CC[C@]3(CCC(=O)[C@H]32)[C@@H](C)[C@@H]1O
- MIC (Enterococcus faecium): 8 µg/mL (≈ 15.9 µM)
- MIC (Staphylococcus aureus [1]): 2 µg/mL (≈ 3.98 µM)
- MIC (Staphylococcus aureus [2]): 2 µg/mL (≈ 3.98 µM)
- MIC [3]: > 64 µg/mL

Structure (SMILES): C=C[C@]1(C)C[C@@H](OC(=O)CNC(=O)Nc2ccccc2)[C@]2(C)[C@H](C)CC[C@]3(CCC(=O)[C@H]32)[C@@H](C)[C@@H]1O
- MIC (Enterococcus faecium): 32 µg/mL (≈ 64.4 µM)
- MIC (Staphylococcus aureus [1]): 0.5 µg/mL (≈ 1.01 µM)
- MIC (Staphylococcus aureus [2]): 0.5 µg/mL (≈ 1.01 µM)
- MIC [3]: > 64 µg/mL

Structure (SMILES): C=C[C@]1(C)C[C@@H](OC(=O)CNC(=S)Nc2ccc3ccccc3c2)[C@]2(C)[C@H](C)CC[C@]3(CCC(=O)[C@H]32)[C@@H](C)[C@@H]1O
- MIC (Enterococcus faecium): 32 µg/mL (≈ 56.9 µM)
- MIC (Staphylococcus aureus [1]): 4 µg/mL (≈ 7.11 µM)
- MIC (Staphylococcus aureus [2]): 16 µg/mL (≈ 28.4 µM)
- MIC [3]: > 64 µg/mL

Structure (SMILES): C=C[C@]1(C)C[C@@H](OC(=O)CNC(=S)NC(=O)c2ccc(Cl)cc2)[C@]2(C)[C@H](C)CC[C@]3(CCC(=O)[C@H]32)[C@@H](C)[C@@H]1O
- MIC (Enterococcus faecium): 8 µg/mL (≈ 13.9 µM)
- MIC (Staphylococcus aureus [1]): 16 µg/mL (≈ 27.8 µM)
- MIC (Staphylococcus aureus [2]): 16 µg/mL (≈ 27.8 µM)
- MIC [3]: > 64 µg/mL

Structure (SMILES): C=C[C@]1(C)C[C@@H](OC(=O)CNC(=O)Nc2cc(Cl)cc(Cl)c2)[C@]2(C)[C@H](C)CC[C@]3(CCC(=O)[C@H]32)[C@@H](C)[C@@H]1O
- MIC (Enterococcus faecium): 32 µg/mL (≈ 56.6 µM)
- MIC (Staphylococcus aureus [1]): 0.5 µg/mL (≈ 0.884 µM)
- MIC (Staphylococcus aureus [2]): 0.5 µg/mL (≈ 0.884 µM)
- MIC [3]: > 64 µg/mL

Source: ChEMBL document CHEMBL5143602, “Design, synthesis and antibacterial evaluation of pleuromutilin derivatives” (Bioorg Med Chem, 2022)
